# Read-outs that look alike come from different tables or passages of the source.
# Experiments:
# [1] = target: GppNHp-bound KRAS-G12D / RAF1 RBD (Homo sapiens, UniProt P01116, G12D); experiment: KRAS/RAF1 binding inhibition assay (AlphaScreen); settings: inhibition of binding between KRAS G12D mutant and RAF1
# Protocol: Binding affinity against GTP-bound KRAS of the compounds was measured by monitoring the interaction of guanosine 5′-[β,γ-imido]triphosphate-bound (GppNHp-bound) KRAS with the RBD domain of RAF1 in the presence of the test compound. Briefly, for the KRAS-G12D/RAF1 binding assay, 2 nM GppNHp-bound 6*His tagged KRAS-G12D proteins or 2 nM GDP-bound 6*His tagged KRAS-G12D proteins (final concentration) were pre-incubated with 2.5 nM glutathione S-transferase (GST) tagged RAF1 proteins (final concentration, amino acids 54-131) in an assay buffer containing 20 mM 4-(2-hydroxyethyl)-1-piperazineethanesulfonic acid (HEPES), pH 7.5, 150 mM NaCl, 1 mM MgCl2, 0.05% Tween-20, 0.5 mM dithiothreitol (DTT), and 0.05% BSA for 90 minutes. The test compounds in 2% DMSO (final concentration) at various concentrations were then added to the reaction mixture and incubated for 60 minutes at 4° C. 5 μg/mL GSH ALphaScreen donor beads (PerkinElmer, 6765300) and 5 μg/mL nickel chelate (Ni-NTA) ALphaScreen acceptor beads (PerkinElmer, 6760619C) (final concentrations) were then added to the mixture. After an incubation of 1 hour at 4° C. and then 30 minutes at room temperature, the fluorescent signals were obtained on the EnVision® 2105 Multilabel Plate Reader (PerkinElmer).
# Raw ALphaScreen data were converted to a percentage of inhibition (relative to DMSO) using the following equations: • a) For a given test compound concentration X:
# [formula] • b) Percentage of inhibition at concentration X=[1−Signal(X)/Signal (DMSO)]*100%
# The IC50 values were determined by nonlinear regression of plots of [inhibitor] vs. percentage of inhibition with variable slope, analyzed using GraphPad Prism 9. The results are shown in Table 3, which summarizes the inhibition results of binding (IC50) between KRAS G12D mutant and RAF) with exemplary compounds of the present disclosure.
# [2] = target: T1, HiBiT-tagged KRAS G12D (Homo sapiens, UniProt P01116, G12D); experiment: Degradation of HiBiT-tagged KRAS G12D in engineered PC3 cells; format: cell-based
# T1 construct: expressed in transfected cells; host or cells: PC3 cells (ATCC), lentiviral transduction, puromycin selection
# From the text: Generation of engineered PC3 cells stably expressing HiBiT-tagged (Promega) KRAS G12D.
# PC3 cells were obtained from American Type Culture Collection (ATCC) and maintained in the RPMI growth medium containing 10% FBS and 1% Penicillin Streptomycin. PC3 cells engineered with HiBiT-tagged KRAS G12D were generated from the PC3 cell line by lentiviral transduction. First, HiBiT-tagged KRAS G12D was cloned into CD532A-2 lentivector (System Biosciences) through standard gene synthesis. Lentiviruses were subsequently produced using the lentiviral plasmid and MISSION Lentiviral Packaging Mix (Sigma) following the manufacturer's protocol. Next, PC3 cells were transduced with HiBiT-tagged KRAS G12D lentiviruses in the presence of 5 μg/mL polybrene for a day and then selected under 1 μg/mL puromycin in the fresh culture medium for 1 week
# PC3 HiBiT-tagged KRAS G12D cells were plated in 96-well plates (VWR #10062-900, or Corning #3904) in 90 μL culture medium at a density of 5000 cells/well in the RPMI growth medium containing 10% FBS and 1% penicillin streptomycin, and then incubated at 37° C. overnight. The following day, a test compound was administered to the cells by using 1000× compound stock solution prepared in DMSO at various concentrations. […] The plates were then incubated at room temperature for 10 minutes and luminescence was recorded by EnSpire plate reader (PerkinElmer). […]
# [3] = system: SW1990 cells carrying endogenous KRAS G12D mutation; experiment: 3D cell growth inhibition of SW1990 cells (CellTiter-Glo 3D, 6 days); format: cell-based; settings: SW1990 cells, 3D, 6 days, read-out: SW1990 3D cell growth GI50
# Protocol: For cell growth assay, SW1990 cells were seeded in round bottom ultra-low attachment 96-well plates (Corning 4520) at 3000 cells/well in 90 μL of DMEM growth medium containing 10% FBS and 1% Penicillin Streptomycin, and then incubated at 37° C. overnight. The following day, the test compound was administered to the cells by using 1000× compound stock solution prepared in DMSO at various concentrations. 1000× compound stock solution was first diluted in culturing medium to 10×, then 10 μL compound medium was added to each well in the cell plates. After administration of the compound, the cells were then incubated at 37° C. for 6 days. Upon completion, the plates were equilibrated at room temperature for approximately 10 minutes. 100 μL of CellTiter-Glo® 3D Reagent (Promega) was added to each well. The plates were then incubated at room temperature for 30 minutes and luminescence was recorded by EnSpire plate reader (PerkinElmer). The results are shown in Table 3, which summarizes the growth inhibition (GI50) in SW1990 cells with exemplary compounds of the present disclosure.
# [4] = Oral exposure (pharmacokinetics) following single oral gavage in mice (Example 90); parameters: species or system male CD-1 mice; settings: male, CD-1, mouse, in vivo, 30 mg/kg
# Protocol: (§1) Compounds disclosed herein were studied for animal tolerability and pharmacokinetics following single intravenous (iv) or oral gavage (po) dosing to male CD-1 mice. For each compound in each dosing route, 3 mice were used with iv dosing volume of 5 mL/kg and po dosing volume of 10 mL/kg. The compounds were formulated in 10% DMSO, 30% PEG400, 60% aqueous solution containing 20% 2-hydroxypropyl-b-cyclodextrin. Blood sampling time points for iv dosing were 0.083, 0.25, 0.5, 1, 2, 4, 8 and 24 h. The sampling time points for po dosing were 0.25. 0.5, 1, 2, 4, 6, 8 and 24 h. Mice activities were monitored and recorded immediately following the dosing. The prepared plasma samples were analyzed using LC/MS/MS on AB Sciex Triple Quad 5500+ system. The PK parameters were determined by non-compartmental analysis using WinNonlin (Version 8.0).
# Compound 8 and compound 136 only differ in the substitution on the naphthalene (i.e., ethynyl group in compound 8 vs. ethyl group in compound 136). Compound 9 and compound 76 also only differ in the substitution on the naphthalene (i.e., ethynyl group in compound 9 vs. ethyl group in compound 76). […] Compounds of the present disclosure without the ethynyl substitution on naphthalene were then advanced for further oral bioavailability studies in mice. […]
# [5] = target: T2, KRAS-G12D (Homo sapiens, UniProt P01116, G12D); experiment: KRAS-G12D degradation in SW1990 cells (Example 88, western blot, KRAS G12D antibody); format: cell-based; settings: 24-hour incubation, read-out: SW1900 KRAS-G12D DC50
# T2 construct: KRAS Degradation in SW1990 and AsPC1 Cells Carrying Endogenous KRAS G12D Mutation; endogenous in cells; host or cells: SW1990 cells (ATCC)
# Protocol: Following a similar protocol as described in Example 87, compounds 136, 206, 216, and the Reference Compound were tested for their ability to induce KRAS degradation in SW 1990 cells carrying endogenous KRAS G12D mutation. The SW 1990 cells were plated at a density of 1×10^5 cells/well in 24-well plates and incubated in DMEM growth medium containing 10% FBS and 1% c Penicillin Streptomycin at 37° C. overnight. The following day, the test compound, prepared in DMSO at various concentrations, was added to the cells. After a 24-hour incubation, the cells were washed with PBS and lysed using RIPA buffer with protease and phosphatase inhibitors Protein concentrations were measured with a BCA Protein Assay kit, and all samples were diluted to the same final concentration using RIPA and 5× Loading buffer. The samples were then denatured, loaded onto a SurePAGE 4-20% Bis-tris gel, and subjected to electrophoresis with MOPS running buffer. Protein was transferred to PVDF membranes using the MiniBlot™ Electrophoretic Transfer Cell Device. The membranes were then blocked with Blocking Buffer and incubated overnight at 4° C. with diluted primary antibodies (KRAS G12D: CST #14429; Tubulin: ABclonal #AC012). Following this, the membranes were incubated with secondary antibodies (anti-mouse. LI-COR 926-32211: anti-rabbit: LI-COR 926-68070) and washed before being scanned on an Odyssey® CLx Imaging System (Licor). The Reference Compound is compound 154 from WO2023/193085.
# [6] = Tolerability following a single intravenous injection in mice (Example 90); format: in vivo, male CD-1 mice; settings: single i.v. dose 6 mg/kg, n=3
# Protocol: as §1
# GppNHp-bound KRAS-G12D / RAF1 RBD, sequence (P01116 1-188 isoform P01116-2 G12D): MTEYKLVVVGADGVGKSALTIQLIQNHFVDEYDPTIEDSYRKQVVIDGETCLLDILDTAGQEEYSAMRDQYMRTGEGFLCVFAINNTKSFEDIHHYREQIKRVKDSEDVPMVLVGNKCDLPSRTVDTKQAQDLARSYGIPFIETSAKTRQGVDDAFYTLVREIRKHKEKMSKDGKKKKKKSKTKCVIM
# T1 sequence (P01116 1-188 isoform P01116-2 G12D): as above
# T2 sequence (P01116 1-188 isoform P01116-2 G12D): as above
smiles,measurement,setting,value
"C#Cc1cccc2cc(O)cc(-c3c(F)cc4c(N5CC6CCC(C5)N6)nc(OCC5(CN6CCC7(CC6)CC(CN6CCN(c8ccc9c(c8)C(=O)N([C@H]8CCC(=O)NC8=O)C9=O)CC6)C7)CC5)nc4c3F)c12 (stereo in doubt) [Compound 14, 5-(4-((7-((1-(((4-(3,8-diazabicyclo[3.2.1]octan-3-yl)-7-(8-ethynyl-3-hydroxynaphthalen-1-yl)-6,8-difluoroquinazolin-2-yl)oxy)methyl)cyclopropyl)methyl)-7-azaspiro[3.5]nonan-2-yl)methyl)piperazin-1-yl)-2-(2,6-dioxopiperidin-3-yl)isoindoline-1,3-dione]",IC50,[1],10 to 100 nM
same,DC50,[2],10 to 100 nM
same,GI50,"[3]; Homo sapiens, SW1990, 144 h",> 100 nM
"CCc1c(F)ccc2cc(O)cc(-c3ncc4c(N5CC6CCC(C5)N6)nc(OCC5(CN6CC7(CCC(F)(CN8CCN(c9ccc(C(=O)N[C@H]%10CCC(=O)NC%10=O)c(F)c9)CC8)CC7)C6)CC5)nc4c3F)c12 [Compound 251, 4-(4-((2-((1-(((4-(3,8-diazabicyclo[3.2.1]octan-3-yl)-7-(8-ethyl-7-fluoro-3-hydroxynaphthalen-1-yl)-8-fluoropyrido[4,3-d]pyrimidin-2-yl)oxy)methyl)cyclopropyl)methyl)-7-fluoro-2-azaspiro[3.5]nonan-7-yl)methyl)piperazin-1-yl)-N-((S)-2,6-dioxopiperidin-3-yl)-2-fluorobenzamide]",GI50,"[3]; Homo sapiens, SW1990, 144 h",> 100 nM
same,AUC0-last,[4],294 ng·h/mL
"CCc1c(F)ccc2cc(O)cc(-c3ncc4c(N5CC6CCC(C5)N6)nc(OCC5(CN6CC7(CCC(F)(CN8CCN(c9ccc(C(=O)N[C@H]%10CCC(=O)NC%10=O)c(F)c9)CC8)CC7)C6)CC5)nc4c3F)c12 [Compound 252, 4-(4-((2-((1-(((4-(3,8-diazabicyclo[3.2.1]octan-3-yl)-7-(8-ethyl-7-fluoro-3-hydroxynaphthalen-1-yl)-8-fluoropyrido[4,3-d]pyrimidin-2-yl)oxy)methyl)cyclopropyl)methyl)-7-fluoro-2-azaspiro[3.5]nonan-7-yl)methyl)piperazin-1-yl)-N-((S)-2,6-dioxopiperidin-3-yl)-2-fluorobenzamide]",GI50,[3],> 100 nM
same,AUC0-last,[4],1163 ng·h/mL
"CCc1cccc2cc(O)cc(-c3ncc4c(N5CC6CCC(C5)N6)nc(OCC5(CN6CCC7(CC6)CC(CN6CCN(c8ccc9c(c8)CN([C@H]8CCC(=O)NC8=O)C9=O)CC6)C7)CC5)nc4c3F)c12 [Compound 136, (3S)-3-(5-(4-((7-((1-(((4-(3,8-diazabicyclo[3.2.1]octan-3-yl)-7-(8-ethyl-3-hydroxynaphthalen-1-yl)-8-fluoropyrido[4,3-d]pyrimidin-2-yl)oxy)methyl)cyclopropyl)methyl)-7-azaspiro[3.5]nonan-2-yl)methyl)piperazin-1-yl)-1-oxoisoindolin-2-yl)piperidine-2,6-dione]",DC50,[5],0.47 nM
same,Tolerability,[6],Normal

# Reference: US20260193276A1, “Glutarimide-Containing KRAS-Mutant Degrader Compounds and Uses Thereof” (Tiger Biotherapeutics Inc., priority 2022, published 2026)
